Laboratory results published in patent publication US9586962B2, “Disubstituted octahydropyrrolo [3,4-C] pyrroles as orexin receptor modulators” (Janssen Pharmaceutica NV, priority 2011, dated 2017).

Legend:
human orexin 2 receptor [1] = target: T1, human orexin 2 receptor (Homo sapiens (Human), UniProt O43614); test: Human orexin 2 receptor Ca2+ mobilization assay (FLIPR, PFSK cells, orexin B 100 nM); type: cell-based; settings: modified Cheng-Prusoff correction, read-out: OR 2 Kb
human orexin 2 receptor [2] = target: T1, human orexin 2 receptor; test: Human orexin 2 receptor radioligand binding ([3H]EMPA competition, HEK293 cells); settings: HEK293 cells expressing human orexin-2 receptor, read-out: OR 2 Ki

T1 sequence (O43614 whole entry): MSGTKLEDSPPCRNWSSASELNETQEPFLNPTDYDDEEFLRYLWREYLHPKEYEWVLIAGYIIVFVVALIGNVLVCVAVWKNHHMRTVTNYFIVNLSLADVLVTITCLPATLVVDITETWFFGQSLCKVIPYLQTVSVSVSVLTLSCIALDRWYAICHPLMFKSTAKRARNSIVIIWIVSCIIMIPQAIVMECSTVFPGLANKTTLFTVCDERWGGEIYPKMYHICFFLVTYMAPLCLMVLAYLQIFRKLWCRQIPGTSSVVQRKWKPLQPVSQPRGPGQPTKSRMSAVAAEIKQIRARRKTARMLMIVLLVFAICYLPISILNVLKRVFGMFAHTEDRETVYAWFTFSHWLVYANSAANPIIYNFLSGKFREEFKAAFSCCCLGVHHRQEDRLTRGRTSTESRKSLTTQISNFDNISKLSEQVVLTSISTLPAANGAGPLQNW

Row | Kb (human orexin 2 receptor [1]) [nM] | Ki (human orexin 2 receptor [2]) [nM] | Structure (SMILES)
1 | 2 | – | Cc1nc(N2CC3CN(C(=O)c4ccccc4-c4ncn(C)n4)CC3C2)nc(C)c1Cl (stereo not drawn) [Example 320, 2-(5-Chloro-4,6-dimethylpyrimidin-2-yl)-5-{[2-(1-methyl-1H-1,2,4-triazol-3-yl)phenyl]carbonyl}octahydropyrrolo[3,4-c]pyrrole]
2 | 10 | – | Cc1nc(N2CC3CN(C(=O)c4ccccc4-c4ncn(C)n4)CC3C2)ncc1Cl (stereo not drawn) [Example 321, 2-(5-Chloro-4-methylpyrimidin-2-yl)-5-{[2-(1-methyl-1H-1,2,4-triazol-3-yl)phenyl]carbonyl}octahydropyrrolo[3,4-c]pyrrole]
3 | 5 | – | CCc1c(C)nc(N2CC3CN(C(=O)c4ccccc4-c4ncn(C)n4)CC3C2)nc1C (stereo not drawn) [Example 322, 2-(5-Ethyl-4,6-dimethylpyrimidin-2-yl)-5-{[2-(1-methyl-1H-1,2,4-triazol-3-yl)phenyl]carbonyl}octahydropyrrolo[3,4-c]pyrrole]
4 | 4 | – | Cc1nc(N2CC3CN(C(=O)c4ncccc4-n4nccn4)CC3C2)nc(C)c1C (stereo not drawn) [Example 323, 2-{[3-(2H-1,2,3-Triazol-2-yl)pyridin-2-yl]carbonyl}-5-(4,5,6-trimethylpyrimidin-2-yl)octahydropyrrolo[3,4-c]pyrrole]
5 | 2 | – | Cc1nc(N2CC3CN(C(=O)c4ncccc4-n4nccn4)CC3C2)nc(C)c1F (stereo not drawn) [Example 325, 2-(5-Fluoro-4,6-dimethylpyrimidin-2-yl)-5-{[3-(2H-1,2,3-triazol-2-yl)pyridin-2-yl]carbonyl}octahydropyrrolo[3,4-c]pyrrole]
6 | 4 | – | Cc1cc(C)nc(N2CC3CN(C(=O)c4cccc5c4-c4ccccc4C5)CC3C2)n1 (stereo not drawn) [Example 326, 2-(4,6-Dimethylpyrimidin-2-yl)-5-(9H-fluoren-4-ylcarbonyl)octahydropyrrolo[3,4-c]pyrrole]
7 | 50 | – | Cc1cc(C)nc(N2CC3CN(C(=O)c4c(-n5nccn5)ccc5c4OCO5)CC3C2)n1 (stereo not drawn) [Example 327, [5-(4,6-Dimethyl-pyrimidin-2-yl)-hexahydro-pyrrolo[3,4-c]pyrrol-2-yl]-(5-[1,2,3]triazol-2-yl-benzo[1,3]dioxol-4-yl)methanone]
8 | 40 | – | Cc1cc(C)nc(N2CC3CN(C(=O)c4cccc5cccc(-n6nccn6)c45)CC3C2)n1 (stereo not drawn) [Example 328, [5-(4,6-Dimethyl-pyrimidin-2-yl)-hexahydro-pyrrolo[3,4-c]pyrrol-2-yl]-(8-[1,2,3]triazol-2-yl-naphthalen-1-yl)-methanone]
9 | 3 | – | Cc1cc(C)nc(N2CC3CN(C(=O)c4cccc(F)c4-c4ccccn4)CC3C2)n1 (stereo not drawn) [Example 367, (5-(4,6-Dimethylpyrimidin-2-yl)hexahydropyrrolo[3,4-c]pyrrol-2(1H)-yl)(3-fluoro-2-(pyridin-2-yl)phenyl)methanone]
10 | 7 | – | Cc1cccc(-c2c(F)cccc2C(=O)N2CC3CN(c4nc(C)cc(C)n4)CC3C2)n1 (stereo not drawn) [Example 370, (5-(4,6-Dimethylpyrimidin-2-yl)hexahydropyrrolo[3,4-c]pyrrol-2(1H)-yl)(3-fluoro-2-(6-methylpyridin-2-yl)phenyl)methanone]
11 | 5 | – | Cc1ccnc(-c2c(F)cccc2C(=O)N2CC3CN(c4nc(C)cc(C)n4)CC3C2)c1 (stereo not drawn) [Example 373, (5-(4,6-Dimethylpyrimidin-2-yl)hexahydropyrrolo[3,4-c]pyrrol-2(1H)-yl)(3-fluoro-2-(4-methylpyridin-2-yl)phenyl)methanone]
12 | 12 | – | Cc1ccc(-c2c(F)cccc2C(=O)N2CC3CN(c4nc(C)cc(C)n4)CC3C2)nc1 (stereo not drawn) [Example 374, (5-(4,6-Dimethylpyrimidin-2-yl)hexahydropyrrolo[3,4-c]pyrrol-2(1H)-yl)(3-fluoro-2-(5-methylpyridin-2-yl)phenyl)methanone]
13 | 4 | – | Cc1cc(C)nc(N2CC3CN(C(=O)c4cccc(F)c4-c4ncccc4F)CC3C2)n1 (stereo not drawn) [Example 375, (5-(4,6-Dimethylpyrimidin-2-yl)hexahydropyrrolo[3,4-c]pyrrol-2(1H)-yl)(3-fluoro-2-(3-fluoropyridin-2-yl)phenyl)methanone]
14 | 2 | – | COc1ccc(C(=O)N2CC3CN(c4ncc(F)c(C)n4)CC3C2)c(-n2nccn2)c1 (stereo not drawn) [Example 377, 2-(5-Fluoro-4-methylpyrimidin-2-yl)-5-{[4-methoxy-2-(2H-1,2,3-triazol-2-yl)phenyl]carbonyl}octahydropyrrolo[3,4-c]pyrrole]
15 | 2 | – | COc1ccc(C(=O)N2CC3CN(c4ncc(Cl)c(C)n4)CC3C2)c(-n2nccn2)c1 (stereo not drawn) [Example 378, 2-(5-Chloro-4-methylpyrimidin-2-yl)-5-{[4-methoxy-2-(2H-1,2,3-triazol-2-yl)phenyl]carbonyl}octahydropyrrolo[3,4-c]pyrrole]
16 | 5 | – | COc1ccc(C(=O)N2CC3CN(c4nc(C)c(F)c(C)n4)CC3C2)c(-n2nccn2)c1 (stereo not drawn) [Example 379, 2-(5-Fluoro-4,6-dimethylpyrimidin-2-yl)-5-{[4-methoxy-2-(2H-1,2,3-triazol-2-yl)phenyl]carbonyl}octahydropyrrolo[3,4-c]pyrrole]
17 | 5 | – | COc1ccc(C(=O)N2CC3CN(c4ncc(C)c(C)n4)CC3C2)c(-n2nccn2)c1 (stereo not drawn) [Example 380, 2-(4,5-Dimethylpyrimidin-2-yl)-5-{[4-methoxy-2-(2H-1,2,3-triazol-2-yl)phenyl]carbonyl}octahydropyrrolo[3,4-c]pyrrole]
18 | 8 | – | CCc1c(C)nc(N2CC3CN(C(=O)c4ncccc4-n4nccn4)CC3C2)nc1C (stereo not drawn) [Example 385, 2-(5-Ethyl-4,6-dimethylpyrimidin-2-yl)-5-{[3-(2H-1,2,3-triazol-2-yl)pyridin-2-yl]carbonyl}octahydropyrrolo[3,4-c]pyrrole]
19 | 9 | – | O=C(c1cccc(F)c1-c1ncccn1)N1CC2CN(c3cnc4cc(F)c(F)cc4n3)CC2C1 (stereo not drawn) [Example 387, (5-(6,7-Difluoroquinoxalin-2-yl)hexahydropyrrolo[3,4-c]pyrrol-2(1H)-yl)(3-fluoro-2-(pyrimidin-2-yl)phenyl)methanone]
20 | 14 | – | COc1ccc(C(=O)N2CC3CN(c4cnc5cc(F)c(F)cc5n4)CC3C2)c(-n2nccn2)c1 (stereo not drawn) [Example 389, (5-(6,7-Difluoroquinoxalin-2-yl)hexahydropyrrolo[3,4-c]pyrrol-2(1H)-yl)(4-methoxy-2-(2H-1,2,3-triazol-2-yl)phenyl)methanone]
21 | – | 9000 | Cc1cc(C)nc(N2CC3CN(C(=O)c4ncccc4C(F)(F)F)CC3C2)n1 (stereo not drawn) [Example 413, 2-(4,6-Dimethylpyrimidin-2-yl)-5-{[3-(trifluoromethyl)pyridin-2-yl]carbonyl}octahydropyrrolo[3,4-c]pyrrole]
22 | – | 897 | CCOc1ccc(C)nc1C(=O)N1CC2CN(c3nc(C)cc(C)n3)CC2C1 (stereo not drawn) [Example 414, 2-(4,6-Dimethylpyrimidin-2-yl)-5-[(3-ethoxy-6-methylpyridin-2-yl)carbonyl]octahydropyrrolo[3,4-c]pyrrole]
23 | – | 334 | CCOc1ncccc1C(=O)N1CC2CN(c3nc(C)cc(C)n3)CC2C1 (stereo not drawn) [Example 415, 2-(4,6-Dimethylpyrimidin-2-yl)-5-[(2-ethoxypyridin-3-yl)carbonyl]octahydropyrrolo[3,4-c]pyrrole]
24 | 3 | – | Cc1cc(C)nc(N2CC3CN(C(=O)c4cccc(F)c4-c4ccccn4)CC3C2)n1 (stereo not drawn) [Example 472, (5-(4,6-dimethylpyrimidin-2-yl)hexahydropyrrolo[3,4-c]pyrrol-2(1H)-yl)(3-fluoro-2-(pyridin-2-yl)phenyl)methanone]
